The record followed here is PubChem BioAssay (NCI).

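These data come from cells grown in 96-well plates and exposed to compound for 48 hours at five concentrations. Here, GI50 denotes the concentration required for 50% inhibition of growth. The concentration for full growth arrest is given as TGI.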 A value given as a limit tells only on which side of the number the result lay.

Among the test systems are HT29 colon; M14 melanoma; SNB-19 CNS; HCT-15 colon; ACHN renal; TK-10 renal; OVCAR-4 ovarian; U251 CNS; RPMI-8226 leukemia; K-562 leukemia.
Holding throughout (assay): NCI-60 cell line screen, 48 h

On to `O=C(Nc1ccc(F)cc1F)c1cc(Br)ccc1O`, for which the GI50 in the test on HT29 colon is 3.53 µM; with M14 melanoma, 1.91 µM; in the test on SNB-19 CNS, 2.75 µM; in the test on HCT-15 colon, 3.04 µM; in the test on ACHN renal it was 2.5 µM; in the test with TK-10 renal, 4.83 µM. In addition, the GI50 in the test on OVCAR-4 ovarian was 2.1 µM; with U251 CNS, 2.78 µM; with RPMI-8226 leukemia, 1.69 µM; in the test with K-562 leukemia it was 2.42 µM. The TGI in the test with HT29 colon is above 100 µM; in the test on M14 melanoma, 6.99 µM; in the test with SNB-19 CNS, above 100 µM; in the test with HCT-15 colon it was 17.3 µM; in the test with ACHN renal, 8.4 µM; with TK-10 renal, above 100 µM. The TGI is 92 µM with OVCAR-4 ovarian, above 100 µM with U251 CNS, 5.29 µM in the test with RPMI-8226 leukemia and above 100 µM in the test on K-562 leukemia.

On to `O=C(CC12CC3CC(CC(C3)C1)C2)NCCOCCOCCOCCNC(=O)c1cc2c(o1)C(=O)c1ccccc1C2=O`, for which the GI50 in the test on HT29 colon is 2.46 µM; with M14 melanoma it was 0.222 µM; in the test on SNB-19 CNS, 1.32 µM; in the test with HCT-15 colon it was 1.43 µM; in the test on ACHN renal it was 1.51 µM; in the test with TK-10 renal it was 3.14 µM. Moreover, the GI50 was 1.12 µM in the test with OVCAR-4 ovarian, 1.53 µM with U251 CNS, 1.57 µM in the test with RPMI-8226 leukemia and 1.32 µM with K-562 leukemia. The TGI with HT29 colon amounted to 6.36 µM; in the test with M14 melanoma, 0.491 µM; in the test on SNB-19 CNS, 7.63 µM; in the test on HCT-15 colon, 3.31 µM; in the test with ACHN renal, 3.12 µM; in the test on TK-10 renal, 5.78 µM. For the same compound, the TGI came to 2.33 µM in the test with OVCAR-4 ovarian, 3.09 µM with U251 CNS, 4.61 µM in the test with RPMI-8226 leukemia and 5.32 µM in the test on K-562 leukemia.

Regarding `O=C(N/N=C/c1ccccc1Cl)c1ccccc1Nc1ccnc(C(F)(F)F)c1`, the GI50 was 3.56 µM in the test with HT29 colon; 1.63 µM in the test on M14 melanoma; 2.4 µM with SNB-19 CNS; 0.43 µM in the test with HCT-15 colon; 1.16 µM with ACHN renal; 0.673 µM in the test on TK-10 renal. For the same compound, the GI50 in the test with OVCAR-4 ovarian was 1.32 µM; in the test on U251 CNS, 1.15 µM; in the test with RPMI-8226 leukemia, 0.47 µM; with K-562 leukemia it was 2.16 µM. The TGI with HT29 colon was above 100 µM; with M14 melanoma, 7.19 µM; in the test on SNB-19 CNS, above 61.2 µM; in the test on HCT-15 colon, 3.95 µM; with ACHN renal, 4.72 µM; with TK-10 renal, 3.87 µM. Besides, the TGI was above 100 µM in the test with OVCAR-4 ovarian, 6.18 µM in the test on U251 CNS and 2.74 µM with RPMI-8226 leukemia.

In the case of `C[C@@H]1N=C(c2ccc(Br)cc2)Nc2nc3ccccn3c2C1=O`, the GI50 in the test on HT29 colon is 3.73 µM; in the test with M14 melanoma, 3.6 µM; in the test with SNB-19 CNS, 7.45 µM; with HCT-15 colon, 3.64 µM; with ACHN renal it was 6.75 µM; in the test on TK-10 renal, 21 µM. Besides, the GI50 in the test with OVCAR-4 ovarian was 17.9 µM; in the test on U251 CNS, 6.64 µM; in the test with RPMI-8226 leukemia it was 7.31 µM; with K-562 leukemia, 4.13 µM. In addition, the TGI was above 100 µM in the test on HT29 colon; 48.2 µM with M14 melanoma; above 100 µM in the test with SNB-19 CNS; above 100 µM in the test on HCT-15 colon; above 100 µM in the test on ACHN renal; above 100 µM in the test on TK-10 renal. Also, the TGI in the test on OVCAR-4 ovarian, in the test on U251 CNS, in the test with RPMI-8226 leukemia and with K-562 leukemia was above 100 µM in each case.

For the compound `c1ccc2c(c1)-c1ccccc1C2N1CC2CCC(CC2)C1`, the TGI in the test with HT29 colon is 37.6 µM; with M14 melanoma, 75.4 µM; with SNB-19 CNS it was 92.4 µM; in the test with HCT-15 colon it was 40 µM; in the test with ACHN renal it was 53.4 µM; in the test with TK-10 renal it was above 100 µM. Moreover, the TGI was above 100 µM in the test with OVCAR-4 ovarian, 30.9 µM in the test with U251 CNS, 46 µM in the test with RPMI-8226 leukemia and 36.6 µM in the test on K-562 leukemia.

`C=CCN1C=CC(=O)[C@H](O[Si](C)(C)C(C)(C)C)[C@@H]1/C=C/c1ccccc1`: the GI50 is 5.39 µM in the test on HT29 colon; 13.2 µM in the test with M14 melanoma; 20.7 µM in the test with SNB-19 CNS; 12.5 µM in the test with HCT-15 colon; 15.5 µM with ACHN renal; 14 µM in the test with TK-10 renal. Besides, the GI50 is 11.6 µM in the test on OVCAR-4 ovarian, 12.4 µM with U251 CNS, 13.6 µM in the test with RPMI-8226 leukemia and 9.56 µM in the test on K-562 leukemia. Also, the TGI stood at 19 µM with HT29 colon; 27.5 µM with M14 melanoma; 35.3 µM in the test on SNB-19 CNS; 25.6 µM in the test with HCT-15 colon; 29.2 µM in the test on ACHN renal; 28.5 µM with TK-10 renal. In addition, the TGI in the test on OVCAR-4 ovarian turned out to be 24.7 µM; in the test on U251 CNS it was 25.2 µM; in the test with RPMI-8226 leukemia, 45.2 µM; in the test with K-562 leukemia, 31.3 µM.

Consider `COc1cc2c(cc1OCCCCCCN1CCN(c3ncnc4ccccc34)CC1)N=CC1CCCN1C2=O` (stereo not drawn), for which the GI50 is 0.0449 µM with HT29 colon; 0.171 µM with M14 melanoma; 0.208 µM with SNB-19 CNS; 0.493 µM in the test on HCT-15 colon; 0.345 µM in the test on ACHN renal; 0.155 µM in the test with TK-10 renal. In addition, the GI50 in the test with OVCAR-4 ovarian is 0.13 µM; in the test with U251 CNS, 0.0736 µM; with RPMI-8226 leukemia, below 0.0207 µM; in the test on K-562 leukemia, 0.0446 µM. Also, the TGI was 0.919 µM in the test with HT29 colon; 1.22 µM in the test on M14 melanoma; 3.54 µM with SNB-19 CNS; 2.39 µM in the test with HCT-15 colon; 12.3 µM in the test with ACHN renal; 1.88 µM with TK-10 renal. For the same compound, the TGI came out at 2.05 µM with OVCAR-4 ovarian, 1.05 µM with U251 CNS and 0.103 µM in the test with RPMI-8226 leukemia.
